# Source: patent US6486201B1, “Agarofuan derivatives, their preparation, pharmaceutical composition containing them and their use as medicine” (Institute of Materia Medica, Chinese Academy of Medical …, priority 1998, dated 2002)
# Assays:
# Wistar rats [1] = experiment: Social interaction test on rats; format: in vivo, rat; conditions: mean ± SD; for total time of interaction, 0-9 (minutes): high illuminance unfamiliar conditions (HU); for interaction time (sec. in 9 min): 2 mg/kg ip, HU
# Procedure: The rats (Wistar, 160±20 g) for experiment were individually housed in chambers (55×55×40 cm), and handling adaptability and injection training were carried out twice a day 2 weeks before experiment. One day before experiment, the rats were weighed, labeled and grouped at random in pairs but still separated-until experiment. In experiment, 8 pairs of rats were given AF-5 in 2% lecithin (2% lecithin as control), and the total time of interaction was recorded including smelling, licking, leaning against, grabbing, chasing, biting, following, kicking, hitting etc. The experiment conditions were high illuminance with unfamiliar conditions (HU), low illuminance with unfamiliar conditions, high illuminance with familiar conditions and low illuminance with familiar conditions T-test was used to determine the significance between the test group and control group (Table 3, 4).
# mice = experiment: Single dose toxicity in mice; format: in vivo
# Text: One week alive rate was 100%. The possible durable dosage was 2.4 g/kg by P.O. and two week alive rate was 100% at this dosage.
# Kunming mice = experiment: Forced swimming test on mice (anti-depression activity); format: in vivo, mouse; conditions: for time of immobile phase (sec/4 min): mean ± SD
# Procedure: The experiment used Kunming mice of China, male, 18-21 g of body weight. […]
# The water in experiment vessel was 12 cm in depth, 12.5 cm in diameter and kept at 26° C. Each mouse was put in the water and forced to swim for 6 min in which total immobile time in the last 4 min was recorded, and the significance between experiment group and control group was tested by T value (Table 5).
# Wistar rats [2] = experiment: Elevated plus maze test on rats; format: in vivo, rat; conditions: 32 mg/kg ip, in 2% lecithin, mean ± SD, n 4
# Wistar rats [3] = experiment: Elevated plus maze test on rats; format: in vivo, rat; conditions: for total time of staying on the opened arm (sec. in 5 min.): in 2% lecithin, n 12
# Text: The elevated plus-maze test has been used by Pellow, S. And File, SE. for anti-anxiety model in rats. It is one of the most widely used models for anxiolytics. The elevated plus maze has two cross arms, one is an opened arm (50*10 cm, length, width), another is a closed arm (50×10×40 cm, length, width, height) and the maze is 50 cm above the floor during experiment. The rat for experiment is put on the opening at the cross point (10×10) of the two arms, and may freely choose to enter either opened or closed arm.
# Wistar rats of 160±20 g body weight were used, and divided randomly into 8 groups, 12 in each group. Handling adaptability training was carried out one week before the experiment. In the experiment, AF-5 in 2% lecithin of the doses listed in Table 1 was given to rats which were fasted for 12 hours before experiment. After administration, the rat was put on the center opening of the elevated plus headed to opened arm, and times of entering the opened arm, total time of staying on the opened arm, and times of shuttling inside the closed arm were recorded.
# [4] = 2 mg/kg ip, time 5 minutes, mean ± SE
# [5] = 2 mg/kg ip, time 15 minutes, mean ± SE
# [6] = 2 mg/kg ip, time 30 minutes, mean ± SE
# [7] = 2 mg/kg ip, time 60 minutes, mean ± SE
# [8] = 2 mg/kg ip, time 90 minutes, mean ± SE
compound,measurement,setting,value
"CC(C)CCC1=CCC[C@@]2(C)CC[C@@H]3C[C@]12OC3(C)C [Example 5, (1R,6S,9R)6,10,10-Trimethyl-2-isopentyl-11-oxatricyclo[7.2.1.0^1,6]dodec-2-ene]",melting point,,38 to 39 °C
"CC1(C)O[C@]23C[C@H]1CC[C@]2(C)CCC=C3CCO [Example 11, (1R,6S,9R)6,10,10-Trimethyl-2-(2-hydroxyethyl)-11-oxatricyclo[7.2.1.0^1,6]dodec-2-ene]",melting point,,34 to 36 °C
"CCCC[C@H]1C(=O)CC[C@@]2(C)CC[C@@H]3C[C@]12OC3(C)C [Example 23, (1S,2R,6R,9R)6,10,10-Trimethyl-2-butyl-11-oxatricyclo[7.2.1.0^1,6]dodecan-3-one]",melting point,,64 to 66 °C
"CC1(C)O[C@]23C[C@H]1CC[C@]2(C)CCC=C3Cc1ccc(F)cc1 [Example 8, (1R,6S,9R)6,10,10-Trimethyl-2-(4-flurobenzyl)-11-oxatricyclo[7.2.1.0^1,6]dodec-2-ene]",melting point,,131 to 133 °C
"CCCC[C@@]1(O)CCC[C@@]2(C)CC[C@@H]3C[C@@]21OC3(C)C [Example 21, (1R,2R,6S,9R)6,10,10-Trimethyl-2-butyl-2-hydroxy-11-oxatricyclo[7.2.1.0^1,6]dodecane]",melting point,,90 to 92 °C
"CCCC[C@]1(O)CCC[C@@]2(C)CC[C@@H]3C[C@@]21OC3(C)C [Example 16, (1R,2S,6S,9R)6,10,10-Trimethyl-2-butyl-2-hydroxy-11-oxatricyclo[7.2.1.0^1,6]dodecane]",melting point,,70 to 72 °C
"CC1(C)O[C@]23C[C@H]1CC[C@]2(C)CC[C@](C)(O)C3 [Example 24, (1S,3S,6R,9R)3,6,10,10-Tetramethyl-3-hydoxy-11-oxatricyclo[7.2.1.0^1,6]dodecane]",melting point,,68 to 70 °C
"CC1(C)O[C@]23C[C@H]1CC[C@]2(C)CCC=C3Cc1ccccc1 [Example 7, (1R,6S,9R)6,10,10-Trimethyl-2-benzyl-11-oxatricyclo[7.2.1.0^1,6]dodec-2-ene]",melting point,,49 to 50 °C
"CC(=O)CCC1=CCC[C@@]2(C)CC[C@@H]3C[C@]12OC3(C)C [Example 29, (1R,6S,9R)6,10,10-Trimethyl-2-(3-oxobutyl)-11-oxatricyclo[7.2.1.0^1,6]dodec-2-ene]",melting point,,59 to 62 °C
"CC1=C[C@@]23C[C@@H](CC[C@]2(C)CC1)C(C)(C)O3 [Example 32, (1S,6R,9R)3,6,10,10-Tetramethyl-11-oxatricyclo[7.2.1.0^1,6]dodec-2-ene]",melting point,,38 to 39 °C
"CCCC[C@H]1[C@@H](O)CC[C@@]2(C)CC[C@@H]3C[C@]12OC3(C)C [Example 22, (1S,2S,3S,6R,9R)6,10,10-Trimethyl-2-butyl-3-hydroxy-11-oxatricyclo[7.2.1.0^1,6]dodecane]",melting point,,47 to 48 °C
"CCCCC1=CCC[C@@]2(C)CC[C@@H]3C[C@]12OC3(C)C [AF-5, (1R,6S,9R)6,10,10-Trimethyl-2-butyl-11-oxatricyclo[7.2.1.0^1,6]dodec-2-ene]","total time of interaction, 0-9 (minutes)",Wistar rats [1]; 0.125 mg/kg,1.93 min
same,"total time of interaction, 0-9 (minutes)",Wistar rats [1]; 0.25 mg/kg,2.28 min
same,"total time of interaction, 0-9 (minutes)",Wistar rats [1]; 0.5 mg/kg,3.65 min
same,"total time of interaction, 0-9 (minutes)",Wistar rats [1]; 1.0 mg/kg,4.02 min
same,interaction time (sec. in 9 min),Wistar rats [1]; time 5 minutes,98 sec. in 9 min
same,interaction time (sec. in 9 min),Wistar rats [1]; time 15 minutes,143 sec. in 9 min
same,interaction time (sec. in 9 min),Wistar rats [1]; time 30 minutes,103 sec. in 9 min
same,interaction time (sec. in 9 min),Wistar rats [1]; time 60 minutes,166 sec. in 9 min
same,interaction time (sec. in 9 min),Wistar rats [1]; time 90 minutes,112 sec. in 9 min
same,"total time of interaction, 0-9 (minutes)",Wistar rats [1]; 2.0 mg/kg,3.25 min
same,"total time of interaction, 0-9 (minutes)",Wistar rats [1]; 4.0 mg/kg,3.23 min
same,observed reactions after single dose,"mice; intravenous injection 500 mg, mice","effect of calming, lying down, decreasing alarm reaction and without other abnormal reactions"
same,toxicity in single dose toxicity test (in words),mice; mice,low toxicity and high safety coefficient
same,possible durable dosage,"mice; mouse, in vivo, po, 2 week",2.4 g/kg
same,time of immobile phase (sec/4 min),"Kunming mice; P.O. three times a day (24, 5, 0.5 hours before experiment), 0.5 mg/kg",90 ± 25 sec/4 min
same,time of immobile phase (sec/4 min),"Kunming mice; P.O. three times a day (24, 5, 0.5 hours before experiment), 1.5 mg/kg",60 ± 30 sec/4 min
same,time of immobile phase (sec/4 min),"Kunming mice; P.O. three times a day (24, 5, 0.5 hours before experiment), 5.0 mg/kg",83 ± 35 sec/4 min
same,time of immobile phase (sec/4 min),"Kunming mice; P.O. three times a day (24, 5, 0.5 hours before experiment), 15.0 mg/kg",74 ± 41 sec/4 min
same,time of immobile phase (sec/4 min),"Kunming mice; P.O., s.i.d. × 21 days, 5.0 mg/kg",84 ± 41 sec/4 min
same,time of immobile phase (sec/4 min),"Kunming mice; P.O., s.i.d. × 21 days, 7.5 mg/kg",69 ± 45 sec/4 min
same,time of immobile phase (sec/4 min),"Kunming mice; P.O., s.i.d. × 21 days, 15.0 mg/kg",92 ± 66 sec/4 min
same,time of mobile phase vs. control (in words),Kunming mice; administration in 21 successive days,prolonged the mobile time significantly
same,anti-depression activity in forced swimming test (in words),Kunming mice; mice,has anti-depression activity
same,time of mobile phase vs. control (in words),"Kunming mice; single dosing 1.5, 5, and 15 mg/kg",did not prolong the time of mobile phase
same,time of immobile phase (sec/4 min),"Kunming mice; single dosing, P.O., 0.5 hr, 1.5 mg/kg",93 ± 39 sec/4 min
same,time of immobile phase (sec/4 min),"Kunming mice; single dosing, P.O., 0.5 hr, 5.0 mg/kg",101 ± 52 sec/4 min
same,time of immobile phase (sec/4 min),"Kunming mice; single dosing, P.O., 0.5 hr, 15.0 mg/kg",97 ± 43 sec/4 min
same,time of mobile phase vs. control (in words),"Kunming mice; three times a day, 1.5 mg/kg group",showed significance
same,time of mobile phase vs. control (in words),"Kunming mice; three times a day, 0.5 and 5 mg/kg groups",did not show significance though prolonged the mobile time
same,total time of staying on the opened arm (sec. in 5 min.),Wistar rats [2],9.6 sec. in 5 min.
same,Times of shuttling,"Wistar rats [3]; 0.5 mg/kg ip, 5 min, closed arm, mean ± SD",2.5
same,total time of staying on the opened arm (sec. in 5 min.),"Wistar rats [3]; 0.5 mg/kg ip, 5 min, mean ± SD",23 sec. in 5 min.
same,Times of shuttling,"Wistar rats [3]; 1 mg/kg ip, 5 min, closed arm, mean ± SD",2.8
same,total time of staying on the opened arm (sec. in 5 min.),"Wistar rats [3]; 1 mg/kg ip, 5 min, mean ± SD",25 + sec. in 5 min.
same,Times of shuttling,"Wistar rats [3]; 2 mg/kg ip, 5 min, closed arm, mean ± SD",2.8
same,total time of staying on the opened arm (sec. in 5 min.),"Wistar rats [3]; 2 mg/kg ip, 5 min, mean ± SD",36 sec. in 5 min.
same,Time in opened arm,Wistar rats [3]; [4],4.4
same,Times of shuttling,Wistar rats [3]; [4],3.0
same,Time in opened arm,Wistar rats [3]; [5],6.1
same,Times of shuttling,Wistar rats [3]; [5],4.1
same,Time in opened arm,Wistar rats [3]; [6],7.9
same,Times of shuttling,Wistar rats [3]; [6],6.6
same,Time in opened arm,Wistar rats [3]; [7],20.8
same,Times of shuttling,Wistar rats [3]; [7],5.6
same,Time in opened arm,Wistar rats [3]; [8],1.27
same,Times of shuttling,Wistar rats [3]; [8],3.7
same,Times of shuttling,"Wistar rats [3]; 4 mg/kg ip, 5 min, closed arm, mean ± SD",2.3
same,total time of staying on the opened arm (sec. in 5 min.),"Wistar rats [3]; 4 mg/kg ip, 5 min, mean ± SD",30 sec. in 5 min.
same,Times of shuttling,"Wistar rats [3]; 8 mg/kg ip, 5 min, closed arm, mean ± SD",1.3
same,total time of staying on the opened arm (sec. in 5 min.),"Wistar rats [3]; 8 mg/kg ip, 5 min, mean ± SD",14 sec. in 5 min.
same,Times of shuttling,"Wistar rats [3]; 16 mg/kg ip, 5 min, closed arm, mean ± SD",4.2
same,total time of staying on the opened arm (sec. in 5 min.),"Wistar rats [3]; 16 mg/kg ip, 5 min, mean ± SD",9.8 sec. in 5 min.
same,Times of shuttling,"Wistar rats [3]; 32 mg/kg ip, 5 min, closed arm, mean ± SD",3.0
same,anti-anxiety activity in elevated plus maze test (in words),"Wistar rats [3]; rats, dose-effect",antianxiety activity with a wide dosage range
"CC1(C)O[C@]23C[C@H]1CC[C@]2(C)CCC=C3Cc1ccc(Cl)cc1 [Example 10, (1R,6S,9R)6,10,10-Trimethyl-2-(4-chlorobenzyl)-11-oxatricyclo[7.2.1.0^1,6]dodec-2-ene]",melting point,,87 to 88 °C
